The results in this text go back to US20160139118A1, “NOVEL ASSAY” (GLAXOSMITHKLINE INTELLECTUAL PROPERTY (NO.2) LIMITED, priority 2013, published 2016).

Assay [1] addresses T1, CFI (Homo sapiens, UniProt P05156).
T1 construct: purified serum CFI protein which has been successfully used in cofactor assays; purchased Complement Technology Inc (Tyler, Tex.); host or cells: human serum
T1 sequence (P05156 19-335 limits assumed): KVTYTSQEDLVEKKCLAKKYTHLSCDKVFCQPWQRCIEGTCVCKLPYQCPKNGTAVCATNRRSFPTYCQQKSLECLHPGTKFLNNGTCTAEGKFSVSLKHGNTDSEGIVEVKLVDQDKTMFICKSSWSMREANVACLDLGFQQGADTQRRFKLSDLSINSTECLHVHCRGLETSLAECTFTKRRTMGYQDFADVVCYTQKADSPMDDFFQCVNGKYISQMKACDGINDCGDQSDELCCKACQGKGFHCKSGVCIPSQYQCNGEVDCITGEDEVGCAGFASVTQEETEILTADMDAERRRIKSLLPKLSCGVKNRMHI
T1 sequence (P05156 340-583 limits assumed): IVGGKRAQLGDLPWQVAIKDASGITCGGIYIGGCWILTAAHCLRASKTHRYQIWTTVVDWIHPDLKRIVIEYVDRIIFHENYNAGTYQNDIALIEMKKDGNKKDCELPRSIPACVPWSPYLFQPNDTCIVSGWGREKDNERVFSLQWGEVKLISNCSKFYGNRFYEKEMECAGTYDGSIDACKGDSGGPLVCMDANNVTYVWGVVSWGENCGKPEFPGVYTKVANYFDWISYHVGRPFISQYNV
The experiment in a line: Effect of treating agents on CFI bioactivity in cofactor assay. The format is biochemical. The following applies: 1 μg/mL CFI, 10 μM BAM, 37° C. 40 min with agent; then 80 μg/mL CFH and C3b. As to the method:
(§1) FIG. 11 Effect of Tween 20, Triton X-100 and Guanidine on BAM Activity. The effect of Tween 20, Triton X-100, and Guanidine on the activity of BAM was tested in the cofactor assay, where 1 μg/mL of CFI and 10 μM BAM was incubated at 37° C. for 40 min in the presence of the treating agents, then 80 μg/mL CFH and 80 μg/mL C3b was added and the reactions were lasted for 1 hr 20 min at 37° C. The iC3b concentration in the reaction was then measured using the ELISA method.
(§2) As shown in Section 3.10, mouse isotype control IgGs, especially mIgG2b, caused significant background in terms of increasing CFI bioactivity by potential interaction with BAM at the level of the hinge. To reduce such an effect, multiple agents such as Tween 20, Triton X-100, Guanidine and human serum albumin were tested in the cofactor assays to see if they will interfere with CFI bioactivity or BAM activity first. […] However, the effect didn't seem to be differential (FIG. 11). Taken together, none of the agents tested so far could resolve the IgG BAM binding issue. Lastly, another strategy was tested by reversing the order of addition of the reagents. Normally, BAM and anti-BAM antibody were incubated first, then CFI was added to the mixture, CFH and C3b was added last. […]

Assay [2] deals with T2, BAM (Homo sapiens, UniProt P05067).
T2 construct: Beta amyloid recombinant peptide (1-42) (Ultra Pure, TFA Form) was purchased from Covance; purchased Covance
The assay can be described thus: Effect of treating agents on BAM inhibitory activity in cofactor assay. The format is biochemical. The following applies: 1 μg/mL CFI, 10 μM BAM, 37° C. 40 min with agent; then 80 μg/mL CFH and C3b. As to the method: as §1, §2

In assay [3] the target is T3, C3b (Homo sapiens, UniProt P01024).
T3 construct: Factor I, Factor H, C3b, and iC3b proteins were purchased; purchased Complement Technology Inc (Tyler, Tex.)
The experiment in a line: CFI dose response in cofactor assay (conversion of C3b into iC3b). Type of assay: biochemical. As to the method: A mixture of CFH (10-80 μg/mL) and C3b (80-150 μg/mL) was added into the tubes containing the CFI or BAM/CFI mixture. After a 30 minute-incubation at 37° C., the reaction mixtures were directly diluted into Assay Buffer and used for ELISA detection of iC3b. The detailed procedures other than indicated below were performed following the instruction provided with the ELISA kit. The diluted reaction mixtures and standards were applied to the 8-well strips at 60 μL per well and incubated at RT for 30 min. After washing 5 times in a plate washer with an in house-made washing buffer (10 mM Tris, 60 mM NaCl, 0.1% Tween 20, pH7.2), the 8-well strips were loaded with 50 μL of the HRP-anti-human iC3b conjugates per well and incubated at RT for 30 min. At the end of incubation, the 8-well strips were washed in the plate washer 5 times and incubated with 100 μL of the HRP substrates provided in the kit for additional 30 min. The reaction was stopped by addition of 50 μL Stop Buffer. The absorption at 405 nm was measured within 10 minutes. […] To answer these questions, a CFI dose response study was conducted where CFI was tested in a range of 10 ng/mL to 30 μg/mL in the presence or absence of 200 μM BAM1-42 (Lot 2, aged for 7 days without sonication) in the cofactor assay. […]

The subject of assay [4] is CFI. The experiment in a line: CFI bioactivity in plasma samples from Alzheimer's disease patients treated with Compound A. The format is in vivo, human. The following applies: 6 mg/kg intravenously. As to the method:
FIG. 15. CFI bioactivity in samples from Alzheimer's disease patients treated with anti-BAM (Compound A).
3.14. Providing Evidence that an Anti-BAM Antibody can Modulate CFI Bioactivity in Alzheimer's Patients. Finally, a set of human samples from Alzheimer disease patients treated with Compound A were evaluated for CFI bioactivity in a single assay. The assay conditions follow: • 80 μg/ml CFH and C3b. • 0.01-25 nL of plasma (half-log dilutions). • Incubation 2 hours. • Measurement of iC3b via ELISA. • Samples from one patient were run in a single assay. • Each assay was run in singlets. • To control inter-assay variability a common plasma sample was run in each assay.

T2 sequence (P05067 672-713 limits assumed): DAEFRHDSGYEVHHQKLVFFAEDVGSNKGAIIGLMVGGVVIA

For Triton X-100, in assay [1], the “effect on CFI bioactivity (in words)” value was “didn't affect CFI bioactivity”. In addition, in assay [2], the “effect on inhibitory activity of BAM (in words)” value is “abolished the inhibitory activity of BAM completely”.

As to `N=C(N)N` [Guanidine], the “effect on CFI bioactivity (in words)” value in assay [1] was “significantly reduced”. Also, the “effect on inhibitory activity of BAM (in words)” value in assay [2] is reported as “significantly reduced”.

B1: CFI: Complement factor I protein purchased from Complement Technology Inc (protein)
chain: KVTYTSQEDLVEKKCLAKKYTHLSCDKVFCQPWQRCIEGTCVCKLPYQCPKNGTAVCATNRRSFPTYCQQKSLECLHPGTKFLNNGTCTAEGKFSVSLKHGNTDSEGIVEVKLVDQDKTMFICKSSWSMREANVACLDLGFQQGADTQRRFKLSDLSINSTECLHVHCRGLETSLAECTFTKRRTMGYQDFADVVCYTQKADSPMDDFFQCVNGKYISQMKACDGINDCGDQSDELCCKACQGKGFHCKSGVCIPSQYQCNGEVDCITGEDEVGCAGFASVTQEETEILTADMDAERRRIKSLLPKLSCGVKNRMHIRRKRIVGGKRAQLGDLPWQVAIKDASGITCGGIYIGGCWILTAAHCLRASKTHRYQIWTTVVDWIHPDLKRIVIEYVDRIIFHENYNAGTYQNDIALIEMKKDGNKKDCELPRSIPACVPWSPYLFQPNDTCIVSGWGREKDNERVFSLQWGEVKLISNCSKFYGNRFYEKEMECAGTYDGSIDACKGDSGGPLVCMDANNVTYVWGVVSWGENCGKPEFPGVYTKVANYFDWISYHVGRPFISQYNV
B1: the “EC50 of CFI (PBS control, no BAM)” value in assay [3] (CFI 10 ng/mL to 30 μg/mL, absence of BAM1-42) came to 686 ng/mL. Moreover, in assay [3] (no BAM, reanalysis with reparametrized 4-parameter logistic equation), the “amount of CFI needed to cleave 50% of the available C3b” value was “approximately 632 ng/ml”.

B2: Compound A: anti-BAM antibody comprising a heavy chain of SEQ ID NO: 10 and a light chain of SEQ ID NO: 11 (antibody)
heavy: EVQLVESGGGLVQPGGSLRLSCAVSGFTFSDNGMAWVRQAPGKGLEWVSFISNLAYSIDYADTVTGRFTISRDNAKNSLYLQMNSLRAEDTAVYYCVSGTWFAYWGQGTLVTVSSASTKGPSVFPLAPSSKSTSGGTAALGCLVKDYFPEPVTVSWNSGALTSGVHTFPAVLQSSGLYSLSSVVTVPSSSLGTQTYICNVNHKPSNTKVDKKVEPKSCDKTHTCPPCPAPELAGAPSVFLFPPKPKDTLMISRTPEVTCVWDVSHEDPEVKFNWYVDGVEVHNAKTKPREEQYNSTYRWSVLTVLHQDWLNGKEYKCKVSNKALPAPIEKTISKAKGQPREPQVYTLPPSRDELTKNQVSLTCLVKGFYPSDIAVEWESNGQPENNYKTTPPVLDSDGSFFLYSKLTVDKSRWQQGNVFSCSVMHEALHNHYTQKSLSLSPGK
light: DIVMTQSPLSLPVTPGEPASISCRVSQSLLHSNGYTYLHWYLQKPGQSPQLLIYKVSNRFSGVPDRFSGSGSGTDFTLKISRVEAEDVGVYYCSQTRHVPYTFGGGTKVEIKRTVAAPSVFIFPPSDEQLKSGTASVVCLLNNFYPREAKVQWKVDNALQSGNSQESVTEQDSKDSTYSLSSTLTLSKADYEKHKVYACEVTHQGLSSPVTKSFNRGEC
modifications: Mature H2 heavy chain amino acid sequence.; Mature Light chain amino acid sequence.
B2: the entries for the “overall increase of CFI bioactivity” value in assay [4] (after the second administration) and in assay [4] (after the third administration) were 10% and 28%, respectively.
